Source: paper PMC8198214, “Synthesis and Biological Evaluation of Spirocyclic Chromane Derivatives as a Potential Treatment of Prostate Cancer” (Molecules, 2021)
pIC50: −log10 of the molar value.

What follows are compounds tested on 22Rv1 cells (assay: 22Rv1 cell viability (CCK-8) antiproliferation assay). Conditions: 22Rv1 cell antiproliferation.
Assay type: cell-based, human
Protocol: The 22Rv1 prostate cancer cell line in this study was purchased from KeyGEN Biotech Co. Ltd. (Nanjing, Jiangsu, China ). The cells were cultured in RPMI 1640 medium and maintained at 37 °C in a 5% CO2 incubator. For the cell viability assay, the cell slurry was diluted to required volume at a density of 80,000 cells/mL. Then, 100 μL the cell slurry was seeded in each well of the 96-well plate. The cells were incubated for 72 h at 37 °C, 5% CO2 under humidified condition. The reference and test compounds solution (200×) were prepared with DMSO and were diluted from 200× to 1× with culture medium (RPMI 1640 medium without phenol red and containing 10% fetal calf serum, penicillin (100U/mL), streptomycin (100 μg/mL) and 0.1 nM DHT). The previous culture medium was removed and 200 μL/well of the compound solution (1×) was added to assay plate (final conc: 1×). Then the cells were incubated at 37 °C, 5% CO2 under humidified conditions. 5 Days later, the CCK-8 assay reagent was equilibrated at room temperature for 30 min prior to use. CCK-8 was mixed with fresh medium at a ratio of 1:10 and 100 μL of the diluted CCK8 reagent was added to each well and the plates were incubated for 4.5 h at 37 °C. Finally, absorbance value (OD value) was read on plate reader. GraphPad Prism v5.0 software was used to process data for IC50.

Compound | fold less potency than A-485 [fold] | fold increased potency versus B10 [fold]
C[C@H](N(Cc1ccc2c(c1)OC(F)(F)O2)C(=O)CN1C(=O)O[C@@]2(CCc3cc(-c4cnn(C)c4)ccc32)C1=O)C(F)(F)F [B1, N-((2,2-Difluorobenzo[d][1,3]dioxol-5-yl)methyl)-2-((R)-5-(1-methyl-1H-pyrazol-4-yl)-2′,4′-dioxo-2,3-dihydrospiro[indene-1,5′-oxazolidin]-3′-yl)-N-((S)-1,1,1-trifluoropropan-2-yl)acetamide] | 10 | –
CNC(=O)Cn1cc(-c2ccc3c(c2)CCC32OC(=O)N(CC(=O)N(Cc3ccc(F)cc3)[C@@H]3CCc4ncccc43)C2=O)cn1 (stereo partly drawn) [B11, N-((R)-6,7-Dihydro-5H-cyclopenta[b]pyridin-5-yl)-N-(4-fluorobenzyl)-2-(5-(1-(2-(methylamino)-2-oxoethyl)-1H-pyrazol-4-yl)-2′,4′-dioxo-2,3-dihydrospiro[indene-1,5′-oxazolidin]-3′-yl)acetamide] | – | 5
CNC(=O)Cn1cc(-c2ccc3c(c2)CCC32OC(=O)N(CC(=O)N(Cc3ccc(F)cn3)[C@@H]3CCc4ccccc43)C2=O)cn1 (stereo partly drawn) [B12, N-((R)-2,3-Dihydro-1H-inden-1-yl)-N-((5-fluoropyridin-2-yl)methyl)-2-(5-(1-(2-(methylamino)-2-oxoethyl)-1H-pyrazol-4-yl)-2′,4′-dioxo-2,3-dihydrospiro[indene-1,5′-oxazolidin]-3′-yl)acetamide] | – | 5

Same assay, conditions: Homo sapiens; Table 2; 22Rv1 cells; means of two independent experiments (n = 2)

Compound | pIC50
C[C@H](N(Cc1ccc2c(c1)OC(F)(F)O2)C(=O)CN1C(=O)O[C@@]2(CCc3cc(-c4cnn(C)c4)ccc32)C1=O)C(F)(F)F [B1, N-((2,2-Difluorobenzo[d][1,3]dioxol-5-yl)methyl)-2-((R)-5-(1-methyl-1H-pyrazol-4-yl)-2′,4′-dioxo-2,3-dihydrospiro[indene-1,5′-oxazolidin]-3′-yl)-N-((S)-1,1,1-trifluoropropan-2-yl)acetamide] | 5.86
CN1C2CCC1CC(N(Cc1ccc(F)cc1)C(=O)CN1C(=O)O[C@@]3(CCc4cc(-c5cnn(C)c5)ccc43)C1=O)C2 (stereo partly drawn) [B2, N-(4-Fluorobenzyl)-2-((R)-5-(1-methyl-1H-pyrazol-4-yl)-2′,4′-dioxo-2,3-dihydrospiro[indene-1,5′-oxazolidin]-3′-yl)-N-(8-methyl-8-azabicyclo[3.2.1]octan-3-yl)acetamide] | 4.42
Cn1cc(-c2ccc3c(c2)CCC32OC(=O)N(CC(=O)N(Cc3ccc(F)cc3)[C@@H]3CN4CCC3CC4)C2=O)cn1 (stereo partly drawn) [B3, N-(4-Fluorobenzyl)-2-(5-(1-methyl-1H-pyrazol-4-yl)-2′,4′-dioxo-2,3-dihydrospiro [indene-1,5′-oxazolidin]-3′-yl)-N-((S)-quinuclidin-3-yl)acetamide] | < 4.60
Cn1cc(-c2ccc3c(c2)CCC32OC(=O)N(CC(=O)N(Cc3ccc(F)cc3)[C@H]3CCc4ccccc43)C2=O)cn1 (stereo partly drawn) [B4, N-((S)-2,3-Dihydro-1H-inden-1-yl)-N-(4-fluorobenzyl)-2-(5-(1-methyl-1H-pyrazol-4-yl)-2′,4′-dioxo-2,3-dihydrospiro[indene-1,5′-oxazolidin]-3′-yl)acetamide] | 6.60
CNC(=O)Nc1ccc2c(c1)CCC21OC(=O)N(CC(=O)N(Cc2ccc(F)cc2)[C@H]2CCc3ccccc32)C1=O (stereo partly drawn) [B5, N-((S)-2,3-Dihydro-1H-inden-1-yl)-N-(4-fluorobenzyl)-2-(5-(3-methylureido)-2′,4′-dioxo-2,3-dihydrospiro[indene-1,5′-oxazolidin]-3′-yl)acetamide] | 6.39
CC(C)(O)Cn1cc(-c2ccc3c(c2)CCC32OC(=O)N(CC(=O)N(Cc3ccc(F)cc3)[C@H]3CCc4ccccc43)C2=O)cn1 (stereo partly drawn) [B6, N-((S)-2,3-Dihydro-1H-inden-1-yl)-N-(4-fluorobenzyl)-2-(5-(1-(2-hydroxy-2-methylpropyl)-1H-pyrazol-4-yl)-2′,4′-dioxo-2,3-dihydrospiro[indene-1,5′-oxazolidin]-3′-yl)acetamide] | 6.37
CNC(=O)Cn1cc(-c2ccc3c(c2)CCC32OC(=O)N(CC(=O)N(Cc3ccc(F)cc3)[C@H]3CCc4ccccc43)C2=O)cn1 (stereo partly drawn) [B7, N-((S)-2,3-Dihydro-1H-inden-1-yl)-N-(4-fluorobenzyl)-2-(5-(1-(2-(methylamino)-2-oxoethyl)-1H-pyrazol-4-yl)-2′,4′-dioxo-2,3-dihydrospiro[indene-1,5′-oxazolidin]-3′-yl)acetamide] | 6.57
CNC(=O)Cn1cc(-c2ccc3c(c2)CCC32OC(=O)N(CC(=O)N(Cc3ccc(F)cc3)[C@H]3CCc4cc(F)ccc43)C2=O)cn1 (stereo partly drawn) [B9, N-((S)-5-Fluoro-2,3-dihydro-1H-inden-1-yl)-N-(4-fluorobenzyl)-2-(5-(1-(2-(methylamino)-2-oxoethyl)-1H-pyrazol-4-yl)-2′,4′-dioxo-2,3-dihydrospiro[indene-1,5′-oxazolidin]-3′-yl)acetamide] | 6.48
CNC(=O)Cn1cc(-c2ccc3c(c2)CCC32OC(=O)N(CC(=O)N(Cc3ccc(F)cc3)[C@@H]3CCc4ccccc43)C2=O)cn1 (stereo partly drawn) [B10, N-((R)-2,3-Dihydro-1H-inden-1-yl)-N-(4-fluorobenzyl)-2-(5-(1-(2-(methylamino)-2-oxoethyl)-1H-pyrazol-4-yl)-2′,4′-dioxo-2,3-dihydrospiro[indene-1,5′-oxazolidin]-3′-yl)acetamide] | 5.78
CNC(=O)Cn1cc(-c2ccc3c(c2)CCC32OC(=O)N(CC(=O)N(Cc3ccc(F)cc3)[C@@H]3CCc4ncccc43)C2=O)cn1 (stereo partly drawn) [B11, N-((R)-6,7-Dihydro-5H-cyclopenta[b]pyridin-5-yl)-N-(4-fluorobenzyl)-2-(5-(1-(2-(methylamino)-2-oxoethyl)-1H-pyrazol-4-yl)-2′,4′-dioxo-2,3-dihydrospiro[indene-1,5′-oxazolidin]-3′-yl)acetamide] | 6.47
CNC(=O)Cn1cc(-c2ccc3c(c2)CCC32OC(=O)N(CC(=O)N(Cc3ccc(F)cn3)[C@@H]3CCc4ccccc43)C2=O)cn1 (stereo partly drawn) [B12, N-((R)-2,3-Dihydro-1H-inden-1-yl)-N-((5-fluoropyridin-2-yl)methyl)-2-(5-(1-(2-(methylamino)-2-oxoethyl)-1H-pyrazol-4-yl)-2′,4′-dioxo-2,3-dihydrospiro[indene-1,5′-oxazolidin]-3′-yl)acetamide] | 6.58
CNC(=O)Cn1cc(-c2ccc3c(c2)CCC32OC(=O)N(CC(=O)N(Cc3ccc(F)cn3)[C@@H]3CCc4cccnc43)C2=O)cn1 (stereo partly drawn) [B13, N-((R)-6,7-Dihydro-5H-cyclopenta[b]pyridin-7-yl)-N-((5-fluoropyridin-2-yl)methyl)-2-(5-(1-(2-(methylamino)-2-oxoethyl)-1H-pyrazol-4-yl)-2′,4′-dioxo-2,3-dihydrospiro[indene-1,5′-oxazolidin]-3′-yl)acetamide] | 5.46
CNC(=O)Cn1cc(-c2ccc3c(c2)CCC32OC(=O)N(CC(=O)N(Cc3ccc(F)cc3)[C@H]3CCCc4ccccc43)C2=O)cn1 (stereo partly drawn) [B15, N-(4-fluorobenzyl)-2-(5-(1-(2-(methylamino)-2-oxoethyl)-1H-pyrazol-4-yl)-2′,4′-dioxo-2,3-dihydrospiro[indene-1,5′-oxazolidin]-3′-yl)-N-((S)-1,2,3,4-tetrahydronaphthalen-1-yl)acetamide] | 6.35
CNC(=O)Nc1ccc2c(c1)CCC21OC(=O)N(CC(=O)N2CCCc3ccc(C(F)F)cc32)C1=O (stereo not drawn) [B17, 1-(3′-(2-(7-(Difluoromethyl)-3,4-dihydroquinolin-1(2H)-yl)-2-oxoethyl)-2′,4′-dioxo-2,3-dihydrospiro[indene-1,5′-oxazolidin]-5-yl)-3-methylurea] | 5.06
Cn1cc(-c2ccc3c(c2)CCC32OC(=O)N(CC(=O)N3CCn4c(nnc4C(F)(F)F)C3)C2=O)cn1 (stereo not drawn) [B18, 5-(1-Methyl-1H-pyrazol-4-yl)-3′-(2-oxo-2-(3-(trifluoromethyl)-5,6-dihydro-[1,2,4]triazolo[4,3-a]pyrazin-7(8H)-yl)ethyl)-2,3-dihydrospiro[indene-1,5′-oxazolidine]-2′,4′-dione] | < 4.60

Same assay, conditions: Table 1; 22Rv1 cells; means of two independent experiments (n = 2)

Compound | pIC50
2-(5′-(3-Cyclopropylureido)-2′′,4′′-dioxo-2′H-dispiro[cyclopropane-1,3′-indene-1′,5′′-oxazolidin]-3′′-yl)-N-(4-fluorobenzyl)-N-((S)-1,1,1-trifluoropropan-2-yl)acetamide [A3] | 6.10
N-(4-Fluorobenzyl)-2-(2-methyl-2′,4′-dioxo-2,4,8,9-tetrahydrospiro[cyclopenta [6,7]chromeno [3,4-c]pyrazole-7,5′-oxazolidin]-3′-yl)-N-((S)-1,1,1-trifluoropropan-2-yl)acetamide [A4] | < 4.00
N-(4-Fluorobenzyl)-2-(3-(1-(2-(methylamino)-2-oxoethyl)-1H-pyrazol-4-yl)-2′,4′-dioxo-5,6-dihydrospiro[cyclopenta[b]pyridine-7,5′-oxazolidin]-3′-yl)-N-((S)-1,1,1-trifluoropropan-2-yl)acetamide [A5] | 4.79
N-(4-Fluorobenzyl)-2-(3-(1-(2-(methylamino)-2-oxoethyl)-1H-pyrazol-4-yl)-2′,4′-dioxospiro[fluorene-9,5′-oxazolidin]-3′-yl)-N-((S)-1,1,1-trifluoropropan-2-yl)acetamide [A1] | < 4.00
N-(4-Fluorobenzyl)-2-(3-(1-methyl-1H-pyrazol-4-yl)-2′,4′-dioxo-5,6-dihydrospiro [cyclopenta[c]pyridine-7,5′-oxazolidin]-3′-yl)-N-((S)-1,1,1-trifluoropropan-2-yl)acetamide [A6] | 4.57
N-(4-Fluorobenzyl)-2-(5-(1-(2-(methylamino)-2-oxoethyl)-1H-pyrazol-4-yl)-2′,5′-dioxo-2,3-dihydrospiro[indene-1,3′-pyrrolidin]-1′-yl)-N-((S)-1,1,1-trifluoropropan-2-yl)acetamide [A7] | 5.75
N-(4-Fluorobenzyl)-2-(5-(3-methylureido)-2′,5′-dioxo-2,3-dihydrospiro[indene-1,3′-pyrrolidin]-1′-yl)-N-((S)-1,1,1-trifluoropropan-2-yl)acetamide [A8] | 5.19
N-(4-Fluorobenzyl)-2-(5′-(3-methylureido)-2′′,4′′-dioxo-2′H-dispiro[cyclopropane-1,3′-indene-1′,5′′-oxazolidin]-3′′-yl)-N-((S)-1,1,1-trifluoropropan-2-yl)acetamide [A2] | 6.45

Same assay, conditions: Table 2; 22Rv1 cells; means of two independent experiments (n = 2)

Compound | pIC50
N-(4-Fluorobenzyl)-N-((S)-1-methyl-4,5,6,7-tetrahydro-1H-indazol-4-yl)-2-(5-(1-(2-(methylamino)-2-oxoethyl)-1H-pyrazol-4-yl)-2′,4′-dioxo-2,3-dihydrospiro [indene-1,5′-oxazolidin]-3′-yl)acetamide [B14] | 5.96
